Results published in ChEMBL document CHEMBL5625252, “Synthesis of peptidomimetics as antibiotic adjuvants for combination with aztreonam to combat MDR Pseudomonas aeruginosa” (Eur J Med Chem, 2023).
≈ marks a conversion by molar mass, not a printed value.

What was measured:
Type in all cases: functional
Pseudomonas aeruginosa [1] = test: Synergistic antibacterial activity against Pseudomonas aeruginosa PAO1 assessed as aztreonam MIC upto […] ug/ml incubated for 18 hrs by checkerboard method (reference value: 8 microg/ml)
Escherichia coli [2] = test: Antibacterial activity against NDM-1 (+) Escherichia coli CDC 1001728 assessed as inhibition of bacterial growth incubated for 18 hrs by agar dilution method
Klebsiella pneumoniae [3] = test: Antibacterial activity against NDM-1 (+) Klebsiella pneumoniae 2146 assessed as inhibition of bacterial growth incubated for 18 hrs by agar dilution method
Klebsiella pneumoniae [4] = test: Antibacterial activity against NDM-1 (+) Klebsiella pneumoniae 09-20 assessed as inhibition of bacterial growth incubated for 18 hrs by agar dilution method
Klebsiella pneumoniae [5] = test: Antibacterial activity against ESBLs (+) Klebsiella pneumoniae ATCC 700603 assessed as inhibition of bacterial growth incubated for 18 hrs by agar dilution method
Klebsiella pneumoniae [6] = test: Antibacterial activity against ESBLs (+) Klebsiella pneumoniae 16-14 assessed as inhibition of bacterial growth incubated for 18 hrs by agar dilution method
Escherichia coli [7] = test: Antibacterial activity against ESBLs (-) Escherichia coli ATCC 25922 assessed as inhibition of bacterial growth incubated for 18 hrs by agar dilution method
Escherichia coli [8] = test: Antibacterial activity against ESBLs (+) Escherichia coli 16-1 assessed as inhibition of bacterial growth incubated for 18 hrs by agar dilution method
Pseudomonas aeruginosa [9] = test: Antibacterial activity against Pseudomonas aeruginosa PAO1 assessed as inhibition of bacterial growth incubated for 18 hrs by agar dilution method
Pseudomonas aeruginosa [10] = test: Antibacterial activity against BL (+) Pseudomonas aeruginosa ATCC 27853 assessed as inhibition of bacterial growth incubated for 18 hrs by agar dilution method
Escherichia coli [11] = test: Antibacterial activity against mcr-1 (+) Escherichia coli 08-85 assessed as inhibition of bacterial growth incubated for 18 hrs by agar dilution method

Compound | MIC (Pseudomonas aeruginosa [1]) [µg/mL] | MIC (Escherichia coli [2]) [µg/mL] | MIC (Klebsiella pneumoniae [3]) [µg/mL] | MIC (Klebsiella pneumoniae [4]) [µg/mL] | MIC (Klebsiella pneumoniae [5]) [µg/mL] | MIC (Klebsiella pneumoniae [6]) [µg/mL] | MIC (Escherichia coli [7]) [µg/mL] | MIC (Escherichia coli [8]) [µg/mL] | MIC (Pseudomonas aeruginosa [9]) [µg/mL] | MIC (Pseudomonas aeruginosa [10]) [µg/mL] | MIC (Escherichia coli [11]) [µg/mL]
COc1ccc(CCC(=O)N[C@@H](CCCN)C(=O)Nc2ccc3ccccc3c2)cc1 | 8 | – | – | – | – | – | – | – | – | – | –
C[C@H]1[C@H](NC(=O)/C(=N\OCC(=O)N2CCC(C(=O)O)C2)c2csc(N)n2)C(=O)N1S(=O)(=O)O (stereo partly drawn) | – | 16 (≈ 31.7 µM) | > 64 | 32 (≈ 63.4 µM) | > 64 | > 64 | 1 (≈ 1.98 µM) | 2 (≈ 3.96 µM) | > 64 | > 64 | > 64
CC(C)[C@@H](O/N=C(\C(=O)N[C@@H]1C(=O)N(OS(=O)(=O)O)C1(C)C)c1csc(N)n1)C(=O)O | – | 32 (≈ 66.7 µM) | > 64 | 16 (≈ 33.4 µM) | 64 (≈ 133 µM) | 16 (≈ 33.4 µM) | 16 (≈ 33.4 µM) | 8 (≈ 16.7 µM) | > 64 | > 64 | 32 (≈ 66.7 µM)
COC(=O)[C@H](Cc1ccccc1)NC(=O)[C@H](CCCN)NC(=O)c1ccc2ccccc2c1 | 8 | – | – | – | – | – | – | – | – | – | –
NCCC[C@H](NC(=O)CCc1ccc([N+](=O)[O-])cc1)C(=O)Nc1ccc2ccccc2c1 | 8 | – | – | – | – | – | – | – | – | – | –
C[C@H]1[C@H](NC(=O)/C(=N\OCC(=O)N2CCC(C(=O)O)CC2)c2csc(N)n2)C(=O)N1S(=O)(=O)O | – | 16 (≈ 30.9 µM) | > 64 | > 64 | > 64 | > 64 | 4 (≈ 7.71 µM) | 16 (≈ 30.9 µM) | > 64 | > 64 | > 64
C=CCO/N=C(\C(=O)N[C@@H]1C(=O)N(S(=O)(=O)O)[C@H]1C)c1nsc(N)n1 | – | 64 (≈ 164 µM) | > 64 | > 64 | > 64 | > 64 | 8 (≈ 20.5 µM) | 16 (≈ 41 µM) | 64 (≈ 164 µM) | > 64 | > 64
NCCC[C@H](NC(=O)CCc1ccccc1)C(=O)Nc1ccc2ccccc2c1 | 2 | – | – | – | – | – | – | – | – | – | –
C[C@H]1[C@H](NC(=O)/C(=N\OC(C)(C)C(=O)N2CCC[C@@H]2C(=O)O)c2csc(N)n2)C(=O)N1S(=O)(=O)O | – | 64 (≈ 120 µM) | > 64 | 16 (≈ 30 µM) | > 64 | > 64 | 2 (≈ 3.76 µM) | 1 (≈ 1.88 µM) | 8 (≈ 15 µM) | 32 (≈ 60.1 µM) | > 64
NCCC[C@H](NC(=O)CCc1ccc(F)cc1)C(=O)Nc1ccc2ccccc2c1 | 8 | – | – | – | – | – | – | – | – | – | –
C[C@H]1[C@H](NC(=O)/C(=N\OCC(=O)N2C3CCCC3C[C@@H]2C(=O)O)c2csc(N)n2)C(=O)N1S(=O)(=O)O (stereo partly drawn) | – | 16 (≈ 29.4 µM) | > 64 | 8 (≈ 14.7 µM) | > 64 | 64 (≈ 118 µM) | 1 (≈ 1.84 µM) | 1 (≈ 1.84 µM) | > 64 | > 64 | > 64
CCOC(=O)[C@H](CCc1ccccc1)NC(=O)[C@H](CCCN)NC(=O)c1ccc2ccccc2c1 | 8 | – | – | – | – | – | – | – | – | – | –
NCCC[C@H](NCc1ccc2ccccc2c1)C(=O)N[C@@H](CCc1ccccc1)C(=O)O | 8 | – | – | – | – | – | – | – | – | – | –
NCCC[C@H](NC(=O)CCc1ccc(C(F)(F)F)cc1)C(=O)Nc1ccc2ccccc2c1 | 8 | – | – | – | – | – | – | – | – | – | –
POLYMYXIN B | – | 1 | 1 | 16 | 2 | 1 | 1 | 0.25 | 8 | 4 | 8
NCCC[C@H](NC(=O)CCc1cc(F)cc(F)c1)C(=O)Nc1ccc2ccccc2c1 | 2 | – | – | – | – | – | – | – | – | – | –

Compound | MIC (Pseudomonas aeruginosa [1]) [µg/mL] | MIC (Escherichia coli [2]) [µg/mL] | MIC (Klebsiella pneumoniae [3]) [µg/mL] | MIC (Klebsiella pneumoniae [4]) [µg/mL] | MIC (Klebsiella pneumoniae [5]) [µg/mL] | MIC (Klebsiella pneumoniae [6]) [µg/mL] | MIC (Escherichia coli [7]) [µg/mL] | MIC (Escherichia coli [8]) [µg/mL] | MIC (Pseudomonas aeruginosa [9]) [µg/mL] | MIC (Pseudomonas aeruginosa [10]) [µg/mL] | MIC (Escherichia coli [11]) [µg/mL]
NCCC[C@H](NC(=O)c1ccc2ccccc2c1)C(=O)N[C@@H](CCc1ccccc1)C(=O)O | 8 | – | – | – | – | – | – | – | – | – | –
CC(C)[C@H](O/N=C(\C(=O)N[C@@H]1C(=O)N(OS(=O)(=O)O)C1(C)C)c1csc(N)n1)C(=O)O | – | 0.5 (≈ 1.04 µM) | 1 (≈ 2.09 µM) | 0.25 (≈ 0.521 µM) | 2 (≈ 4.17 µM) | 0.125 (≈ 0.261 µM) | 0.25 (≈ 0.521 µM) | 0.125 (≈ 0.261 µM) | 4 (≈ 8.34 µM) | 8 (≈ 16.7 µM) | 0.25 (≈ 0.521 µM)
C[C@H]1COc2c(N3CCN(C)CC3)c(F)cc3c(=O)c(C(=O)O)cn1c23 [LEVOFLOXACIN ANHYDROUS] | – | 8 (≈ 22.1 µM) | 128 (≈ 354 µM) | 16 (≈ 44.3 µM) | – | – | ≤ 0.03 | – | – | – | 16 (≈ 44.3 µM)
NCCC[C@H](NC(=O)CCCc1ccccc1)C(=O)Nc1ccc2ccccc2c1 | 8 | – | – | – | – | – | – | – | – | – | –
C[C@H]1[C@H](NC(=O)/C(=N\OCC(=O)N2CCC[C@@H]2C(=O)O)c2nsc(N)n2)C(=O)N1S(=O)(=O)O | – | 8 (≈ 15.8 µM) | > 64 | 16 (≈ 31.7 µM) | > 64 | > 64 | 1 (≈ 1.98 µM) | 1 (≈ 1.98 µM) | > 64 | > 64 | > 64
NCCC[C@H](NC(=O)C[C@H](N)c1ccccc1)C(=O)Nc1ccc2ccccc2c1 | 8 | – | – | – | – | – | – | – | – | – | –
C[C@@H](O/N=C(\C(=O)N[C@@H]1C(=O)N(OS(=O)(=O)O)C1(C)C)c1csc(N)n1)C(=O)O | – | – | 8 (≈ 17.7 µM) | 1 (≈ 2.22 µM) | 4 (≈ 8.86 µM) | 0.5 (≈ 1.11 µM) | 1 (≈ 2.22 µM) | 0.5 (≈ 1.11 µM) | 64 (≈ 142 µM) | 64 (≈ 142 µM) | 1 (≈ 2.22 µM)
C[C@H]1[C@H](NC(=O)/C(=N\OCC(=O)N2CCCC(C(=O)O)C2)c2csc(N)n2)C(=O)N1S(=O)(=O)O (stereo partly drawn) | – | 16 (≈ 30.9 µM) | > 64 | 64 (≈ 123 µM) | > 64 | > 64 | 0.5 (≈ 0.964 µM) | 2 (≈ 3.86 µM) | > 64 | > 64 | > 64
C[C@H](O/N=C(\C(=O)N[C@@H]1C(=O)N(OS(=O)(=O)O)C1(C)C)c1csc(N)n1)C(=O)O | – | – | 4 (≈ 8.86 µM) | 0.5 (≈ 1.11 µM) | 8 (≈ 17.7 µM) | 0.25 (≈ 0.554 µM) | 0.25 (≈ 0.554 µM) | 0.125 (≈ 0.277 µM) | 16 (≈ 35.4 µM) | 16 (≈ 35.4 µM) | 0.25 (≈ 0.554 µM)
C#CCO/N=C(\C(=O)N[C@@H]1C(=O)N(S(=O)(=O)O)[C@H]1C)c1nsc(N)n1 | – | 32 (≈ 82.4 µM) | > 64 | > 64 | > 64 | > 64 | 8 (≈ 20.6 µM) | 16 (≈ 41.2 µM) | 16 (≈ 41.2 µM) | 64 (≈ 165 µM) | > 64
NCCC[C@H](NC(=O)CCc1ccc(Cl)cc1)C(=O)Nc1ccc2ccccc2c1 | 8 | – | – | – | – | – | – | – | – | – | –
NCCC[C@H](NC(=O)Cc1ccc2ccccc2c1)C(=O)N[C@@H](Cc1ccccc1)C(=O)O | 8 | – | – | – | – | – | – | – | – | – | –
C[C@H]1[C@H](NC(=O)/C(=N\OCCN)c2nsc(N)n2)C(=O)N1S(=O)(=O)O | – | 16 (≈ 40.7 µM) | 32 (≈ 81.3 µM) | 64 (≈ 163 µM) | 32 (≈ 81.3 µM) | > 64 | 32 (≈ 81.3 µM) | 16 (≈ 40.7 µM) | > 64 | > 64 | > 64
NCCC[C@H](NC(=O)c1ccc2ccccc2c1)C(=O)N[C@@H](Cc1ccccc1)C(N)=O | 8 | – | – | – | – | – | – | – | – | – | –
C[C@H]1[C@H](NC(=O)/C(=N\OCC(=O)N2CCC[C@@H]2C(=O)O)c2csc(N)n2)C(=O)N1S(=O)(=O)O | – | 8 (≈ 15.9 µM) | > 64 | 2 (≈ 3.96 µM) | > 64 | 16 (≈ 31.7 µM) | 0.12 (≈ 0.238 µM) | 0.12 (≈ 0.238 µM) | 32 (≈ 63.4 µM) | > 64 | > 64
